In paper PMC9078972 (RSC Advances, 2018):
Converted amounts (≈) assume the structure as drawn.

How the values were obtained:
[1] = system: Mycobacterium tuberculosis H37Ra; test: microbe, parasite or virus in culture; assay type: cell-based
[2] = Cytotoxicity against VERO cells; assay type: cell-based; details: African green monkey, VERO cells (kidney epithelial cells)
[3] = ref previous study; cited from earlier work
[4] = physchem; details: 37 °C, water, thermodynamic from solid
[5] = in vitro; details: human, microsomes, pH 7.5
[6] = in vitro; details: rat, microsomes, pH 7.5
[7] = in vitro; details: mouse, microsomes, pH 7.5
[8] = in vitro; details: dog

C[C@H]1COC2(CCN(c3nc(=O)c4cc(C(F)(F)F)cc([N+](=O)[O-])c4s3)CC2)O1 [BTZ043]
MIC [1]: 4 nM (≈ 1.73 ng/mL) | CC50 [2]: > 10 µM | bioavailability F [3]: 29.5% | solubility [4]: < 1 µg/mL | half-life [5]: 46.1 min | half-life [6]: 22 min | half-life [7]: 16.7 min | Papp B→A ([8]; MDCK-MDR1, pH 7.4): 7.17 ×10⁻⁶ cm/s | efflux ratio ([8]; MDCK-MDR1, pH 7.4): 0.79 | Papp A→B ([8]; MDCK-MDR1, pH 7.4, Mean Papp A to B, A to B): 9.02 ×10⁻⁶ cm/s
